Data reported in patent US8703716B2, “Maternal sialic acid supplementation” (DSM IP Assets B.V., priority 2010, dated 2014).

Columns and labels:
[1] = tested on: MBP expression in the cerebellum; assay: MBP expression by western blot of offspring cerebellum after maternal NANA supplementation during lactation; format: in vivo, rat
Procedure: (§1) FIGS. 3A and 3B show the maternal NANA supplementation protocol for experiments testing additional doses of NANA administered during gestation (FIG. 3A) and lactation (FIG. 3B).
To further assess the effects of maternal NANA supplementation during lactation on the brain development of offspring, MBP expression was measured by western blot analysis of cerebellum that was harvested from pups at postnatal days 0, 8, and 16 described in FIG. 3B. As described in Example 2, the blots were probed with an antibody for MBP as described in Example 2 that recognizes the 18 kilodalton form (18 kD MBP) and 21 kilodalton form (21 kD MBP) and an antibody for β-actin as a protein loading control. Quantitation of MBP expression performed with densitometry of the bands in each lane, and each lane represented an individual animal as described in Example 2.
The graphs in FIGS. 12A and 12B represent the average intensity of MBP expression normalized by the corresponding actin signal in relative fluorescence units (Normalized R.F.U.).

[2] = tested on: thickness of MBP expression in white matter of p16 pup brain; assay: Thickness of MBP expression in offspring brain slices by MBP immunohistochemistry and confocal laser microscopy; format: in vivo, Long-Evans rats; details: p16 pups
Text: To determine the effects of supplementing maternal diets with sialic acid (n-acetylneuraminic acid; NANA) on the brain development of the offspring, forty (40) pregnant Long-Evans rats were placed on four (4) diets (10 dams per diet) that differed in their administration of sialic acid (Nacalai, San Diego, Calif.). All animals were started on the diets on the 4th day after being mated (gestational day 4). […]
as §1
To determine the effects of maternal NANA supplementation on the brain development of offspring, assessment of the CC and LOT was performed by taking thin slices of the p16 pup brain described in FIG. 2, staining the slices with MBP immunohistochemistry, and measuring the areas of interest with confocal laser microscopy. […] The locations of the LOT and regions associated with the anterior commissure (AC) are also illustrated in FIG. 7A. […]
(§2) To further assess the effects of maternal NANA supplementation during lactation on the brain development of offspring, assessment of the corpus callosum (CC) and lateral olfactory tract (LOT) was performed by taking thin slices of the p16 pup brain (LacDR p16) described in FIG. 3B, staining the slices with MBP immunohistochemistry, and quantitating the areas of interest with confocal laser microscopy as described in Example 2. Maternal supplementation with NANA at doses of 25 mg/kg/d, 50 mg/kg/d, 100 mg/kg/d and 200 mg/kg/d was tested.
as §2, with “motor pyramids” for “corpus callosum (CC)”, “medial lemniscus” for “lateral olfactory tract (LOT)”

[3] = tested on: myelin basic protein (MBP) expression in the developing whole brain; assay: MBP expression by western blot of whole brain lysates of offspring after maternal NANA supplementation; format: in vivo, Long-Evans rats
Text: (§3) To determine the effects of supplementing maternal diets with sialic acid (n-acetylneuraminic acid; NANA) on the brain development of the offspring, forty (40) pregnant Long-Evans rats were placed on four (4) diets (10 dams per diet) that differed in their administration of sialic acid (Nacalai, San Diego, Calif.). All animals were started on the diets on the 4th day after being mated (gestational day 4).
Dams placed on the gestational diet (“Gest”) received NANA (200 milligrams (mg) per kilogram (kg) body weight per day (d)) only during gestation. These animals were then placed on a base diet after the offspring were born. Conversely, dams on the lactational diet (“fact”) were placed on the base diet during gestation but received NANA (200 mg/kg/d) through the diet during lactation. Dams receiving NANA (200 mg/kg/d) through the diet throughout gestation and lactation were known as the “G+L” group.
After birth, the pups born to each diet group were crossfostered within their respective group to control for any differences in maternal care. The litters were then culled to 10 pups per dam to prevent nutritional differences caused by lack of access to the dam. The study was also designed to allow for the use of 5 pups at each endpoint (N=5) while keeping the litter size equal across all groups. Pups were taken at postnatal day 1 (p1) to determine potential differences between gestational supplementation and lactational supplementation of the maternal diet. […] Pups were also taken at p8 because it served as a midway timepoint and because the primary biomarker used cannot be detected until this day in rat development.
To determine the effects of maternal NANA supplementation on the brain development of offspring, MBP expression was measured by western blot analysis of whole brain lysates that were harvested from pups at postnatal days 0, 8, and 16 described in FIG. 2. […]
The graphs represent the average intensity of MBP expression normalized by the corresponding actin signal in relative fluorescence units (Normalized R.F.U.).

[4] = NANA and Neu5Gc concentrations in cerebrospinal fluid after a single oral NANA dose; format: in vivo, rat; details: single oral dose NANA 200 mg/kg
Procedure: To assess whether NANA is bioavailable to the brain in its native form or whether NANA is processed on its way across the blood-brain barrier, the levels of NANA and one of its potential metabolites were measured in rat cerebrospinal fluid (CSF). The animals' diets were first cleared of NANA by placing them on NANA-free diets for one week. The animals were then given a single, oral dose of NANA (200 mg/kg), and the CSF of each animal was sampled at 0, 0.25, 1, 2, 4, and 6 hours after dosing. The concentrations of NANA and Neu5Gc in the CSF were then assessed by high-pressure liquid chromatography coupled with fluorescence detection methods and quantitation standards.

hippocampal cultures = assay: Ex vivo neurite extension (Map2a staining) in hippocampal cultures from offspring of NANA-supplemented dams; parameters: species or system Long-Evans rats; details: 6 days culture
Text: as §3
[…] These animals were then placed on a base diet after the offspring were born. Conversely, dams on the lactational diet (“fact”) were placed on the base diet during gestation but received NANA (200 mg/kg/d) through the diet during lactation. […]
To determine the effects of maternal NANA supplementation on the brain development of offspring, neurite extension was measured in hippocampal cultures made from p0 pups described in FIG. 2. […] The number of cells in each culture was assessed by staining with 4′,6-diamidino-2-phenylindole (DAPI).
The percent area of Map2a staining was determined by computerized counting of all Map2a positive pixels in each image (5 random fields for each of 9-10 cultures per group; 1 culture per animal). […] A two-tailed, unpaired students t-test was used to compare the two groups, and the test detected a significant difference between the supplemented group and the control group (**, p<0.01). […]

[5] = mice, dams and pups lacking the gene to produce Neu5Gc; cited from earlier work
[6] = maternal NANA during lactation, at certain doses tested, ANOVA p<0.001
[7] = maternal NANA 25-200 mg/kg/d during gestation
[8] = maternal NANA 25-200 mg/kg/d during lactation, p<0.01 / p<0.001

With `CC(=O)N[C@H]1[C@H]([C@H](O)[C@H](O)CO)OC(O)(C(=O)O)C[C@@H]1O` (some centres unmarked) [NANA, N-acetylneuraminic acid] the “total MBP (combined 18 kDa and 21 kDa) in cerebellum” value (“total MBP” below) ([1]; maternal NANA 25 mg/kg/d during lactation, p<0.01) was “significant increase”, the “total MBP” value ([1]; maternal NANA 100 mg/kg/d during lactation, p<0.05) was “significant increase” and the “total MBP” value ([1]; maternal NANA 200 mg/kg/d during lactation, p<0.01) was “significant increase”. For the same molecule, the “expression of 18 kDa MBP normalized to actin in cerebellum” value [1, 6] was “significant increase”, the “expression of 21 kDa MBP normalized to actin in cerebellum” value [1, 6] was “significant increase” and the “thickness of MBP expression in the motor pyramids” value (shortened to “thickness … in the motor pyramids”) ([2]; maternal NANA 50 mg/kg/d during lactation, p=0.022) was “significant increase”. For the same molecule, the “maximal thickness of MBP expression in the lateral olfactory tract (LOT)” value ([2]; maternal NANA 200 mg/kg/d during gestation, lactation or gestation plus lactation) was “significant increases”, the “thickness of MBP expression in the corpus callosum (CC)” value ([2]; maternal NANA 200 mg/kg/d during gestation, lactation or gestation plus lactation, ANOVA p<0.001) was “significant increases” and the “thickness of MBP expression in the middle CC” value [2, 7] was “did not appear to change”. The “thickness of MBP expression in the midline CC decussation” value [2, 7] was “did not appear to change”, the “thickness of MBP expression in the frontal CC” value ([2]; maternal NANA 25-200 mg/kg/d during gestation, p<0.001) was “significant increases” and the “thickness of MBP expression in the LOT” value ([2]; maternal NANA 25-200 mg/kg/d during gestation, p<0.05 / p<0.001) was “significant increases”. For the same molecule, the “thickness of MBP expression in the medial lemniscus” value ([2]; maternal NANA 25-200 mg/kg/d during gestation, p<0.05 / p<0.01) was “significant increases”, the “thickness … in the motor pyramids” value ([2]; maternal NANA 25-200 mg/kg/d during gestation, p<0.05 to p<0.001) was “significant increases” and the “thickness of MBP expression in the medial lemniscus” value ([2]; maternal NANA 25-200 mg/kg/d during lactation) was “no significant changes”. For the same molecule, the “thickness of MBP expression in the LOT” value ([2]; maternal NANA 25-200 mg/kg/d during lactation, p<0.001) was “significant increases”, the “thickness of MBP expression in the midline CC” value [2, 8] was “significant increases” and the “thickness of MBP expression in the rostral CC” value [2, 8] was “significant increases”. For the same molecule, the “thickness of MBP expression in the midline CC decussation” value ([2]; maternal NANA 25-200 mg/kg/d during lactation, p<0.05 / p<0.001) was “significant increases”, the “thickness … in the motor pyramids” value ([2]; maternal NANA during lactation, the other doses tested (25, 100, 200 mg/kg/d)) was “no significant changes” and the “expression of both MBP isoforms, lactational diet compared to NANA-deficient diet” value ([3]; NANA 200 mg/kg/d during lactation only, overall analysis and postnatal day 8, Tukey p<0.05) was “significantly increased”. The “expression of 21 kDa MBP normalized to β-actin” value ([3]; whole brain of pups, maternal NANA 200 mg/kg/d in diet, one-way ANOVA p=0.012) was “significant increase”, the “expression of 18 kDa MBP normalized to β-actin” value ([3]; whole brain of pups, maternal NANA 200 mg/kg/d in diet, one-way ANOVA p=0.037) was “significant increase” and the “time at which CSF NANA returned to baseline values” ([4]; rat CSF) was ≤ 1 h. For the same molecule, the “time of peak of native NANA in CSF after dosing” value ([4]; rat CSF) was 15 min, the “blood-brain barrier crossing of native NANA” value ([4]; rat, from CSF levels) was “crossed the blood-brain barrier” and the “percent area of Map2a staining per neuron (neurite extension)” value (hippocampal cultures; dams fed NANA 25, 50, 100, 200 mg/kg/d during gestation, p<0.01 / p<0.001) was “significantly greater”. The “percent area of Map2a staining per neuron (neurite extension)” value (hippocampal cultures; p0 pups, dams fed NANA 200 mg/kg/d during gestation, p<0.01 vs control) was “significantly greater”.

In the case of `O=C(CO)N[C@H]1[C@H]([C@H](O)[C@H](O)CO)OC(O)(C(=O)O)C[C@@H]1O` (some centres unmarked) [Neu5Gc, N-glycolylneuraminic acid], the “transfer of Neu5Gc from fed dams to pups” value [5] is listed as “does not transfer”.
